From PMC11085308, “Design, Synthesis and Biological Activity of Novel Methoxy- and Hydroxy-Substituted N-Benzimidazole-Derived Carboxamides” (Molecules, 2024)
Values after ≈ are worked out from the molar mass of the structure shown. Read-outs that look alike come from different tables or passages of the source.

Tests used:
E. coli ATCC 25922 = assay: Antibacterial activity in vitro, broth microdilution MIC; type: cell-based, Escherichia coli; conditions: 16–24 h at 37 °C, unit inferred
Description: (§1) The in vitro antibacterial activity of the synthesized benzamides 7–12 and 31–37 was evaluated against a panel of eight different bacterial strains. The Gram-positive bacterial strains comprised S. aureus, S. pneumoniae and E. faecalis, and the panel of Gram-negative bacteria consisted of E. coli, K. pneumoniae, A. baumannii and P. aeruginosa.
(§2) The selected bacterial strains were Gram-negative Escherichia coli (ATCC 25922) and Gram-positive Staphylococcus aureus (ATCC 29213) and S. Pneumoniae (ATCC 49619). The Saccharomyces cerevisiae ATCC 7752 strain was tested as a eukaryotic model organism. Synthesized compounds were prepared as 10 mM DMSO solutions and tested in a final concentration range of 100–0.2 µM [39].
(§3) Broth microdilution testing was performed according to CLSI (Clinical Laboratory Standards Institute) guidelines. The MIC (minimal inhibitory concentration) value was defined as the last tested concentration of a compound at which there is no visible growth of bacteria. Inoculums for each microorganism were prepared using the direct colony suspension method, where broth solutions that achieved turbidity equivalent to 0.5 McFarland standards were additionally diluted 100× with cation-adjusted MH media (Becton Dickinson). All test plates were incubated for 16–24 h at 37 °C.

[1] = test system: HCT 116 (colorectal carcinoma); assay: Antiproliferative activity in vitro, MTT assay, 72 h; type: cell-based; conditions: Homo sapiens, 72 h incubation, '-' with footnote a = did not show biological activity due to precipitation
Description: (§4) The experiments were carried out on four human cell lines which are derived from three cancer types: H460 (lung carcinoma), HCT 116 (colorectal carcinoma), MCF-7 (human breast cancer) and the non-cancerous cell line HEK 293 (human embryonic kidney).
(§5) The results are compared with the known antiproliferative agents doxorubicin and etoposide. […] Therefore, it is not clear whether the observed antiproliferative activity is due to the biological activity of the compounds or to precipitation.
(§6) The experiments were performed on four human cell lines, including HCT 116 (colon carcinoma), H 460 (lung carcinoma), MCF-7 (breast carcinoma) and HEK 293 (human embryonic kidney cells), in line with previously published experimental procedures. Briefly, the cells were grown in DMEM medium with the addition of 10% fetal bovine serum (FBS), 2 mM of L-glutamine, 100 U/mL of penicillin and 100 µg/mL of streptomycin and cultured as monolayers at 37 °C in a humidified atmosphere with 5% CO2. Cells were seeded at 2 × 10^3 cells/well in standard 96-well microtiter plates and left to attach for 24 h. The next day, a test compound was added in five serial 10-fold dilutions. The rate of cell growth was evaluated after 72 h of incubation with MTT assays. […] Each test was performed in quadruplicate in at least two individual experiments.

[2] = test system: MCF-7 (human breast cancer); assay: as above; type: cell-based; conditions: MCF7, 72 h incubation
Description: as §4, §5, §6

H460 (lung carcinoma) = assay: as above; type: cell-based; conditions: Homo sapiens, NCI-H460, 72 h incubation
Description: as §4, §5, §6

[3] = test system: HEK 293 (human embryonic kidney); assay: Antiproliferative activity in vitro, MTT assay, 72 h, non-cancerous cell line; type: cell-based; conditions: HEK293, 72 h incubation, '-' with footnote a = did not show biological activity due to precipitation
Description: as §4, §5, §6

E. coli efflux del. = assay: microbe, parasite or virus in culture; type: cell-based, Escherichia coli; conditions: broth microdilution, 16–24 h at 37 °C; unit inferred
Description: as §1, §2, §3

E. faecalis ATCC 29212 = assay: Antibacterial activity in vitro, broth microdilution MIC; type: cell-based; conditions: for MIC E. faecalis ATCC 29212: broth microdilution, 16–24 h at 37 °C, unit inferred
Description: as §1, §2, §3

P. aeruginosa ATCC 27853 = assay: as above; type: cell-based; conditions: 16–24 h at 37 °C, unit inferred
Description: as §1, §2, §3

A. baumannii ATCC 17978 = assay: as above; type: cell-based; conditions: 16–24 h at 37 °C, unit inferred
Description: as §1, §2, §3

[4] = test system: H460, HCT 116, MCF-7, HEK 293; assay: Antiproliferative activity in vitro, MTT assay, range over the tested cell lines; type: cell-based, human; conditions: read-out: IC50 range against the tested cell lines
Description: as §4, §5, §6

S. aureus ATCC 29213 = assay: Antibacterial activity in vitro, broth microdilution MIC; type: cell-based, Staphylococcus aureus; conditions: for MIC S. aureus ATCC 29213: broth microdilution, 16–24 h at 37 °C, unit inferred
Description: as §1, §2, §3

[5] = Ferric reducing/antioxidant power (FRAP assay); parameters: FRAP: unit not given here; conditions: for FRAP: Fe2+ equivalents, triplicate; for FRAP ferric reducing/antioxidant power, in words: compared to the standard BHT
Description: (§7) The synthesized benzazole acrylonitrile derivatives were screened for their antioxidative potency by using in vitro assays, namely DPPH and ABTS as free radical scavenging assays and FRAP as a ferric reducing/antioxidant power assay.
The antioxidant activity of a substance is directly related to its reducing power.
The FRAP method was carried out according to previously described procedures with some modifications to make it compatible with an assay on a 96-well microplate. All results were expressed as Fe^2+ equivalents (Fe^2+ µmol). Ferrous sulphate (FeSO4 × 7H2O) was used to develop a standard curve of 20–2000 µmol/l for the FRAP test.

HCT 116 cells = assay: Antioxidative activity assay in cells (ROS level, DCFH-DA fluorescence); type: cell-based, human; conditions: HCT 116, TBHP 100 µM plus 10 µM compound, 1 h, compared to NAC
Excerpt: We further selected compounds 9, 10, 32 and 36, showing quite pronounced antioxidant capacity in the DPPH and FRAP assays, in order to test their pro- and antioxidant activity in tumor cells. In order to test the antioxidant activity of the selected compounds in tumor cells (Figure 2), we treated HCT 116 cells with tert-butyl hydroperoxide (TBHP), a substance commonly used for inducing oxidative stress in cells and tissues, alone or in combination with a known antioxidative agent, N-acetyl-L-cysteine (NAC), or the tested compounds. We measured the formation of oxidative stress byproducts using 2′,7′-dichlorodihydrofluorescein diacetate (DCFH-DA).
For the antioxidative activity assay, 2.5 × 10^4 cells were seeded into 96-well microtiter plates and left to attach for 24 h. The next day, cells were washed with PBS and incubated in FBS-free DMEM medium with 25 µM of DCFH-DA fluorescence dye. After 45 min of incubation, the medium was discarded, and the cells were washed with PBS.
After the washing step, the cells were incubated with 100 µM of tert-butyl hydroperoxide (TBHP) alone or in combination with antioxidative agents (50 mM of N-Acetyl-L-cysteine-NAC or 10 µM of the tested compounds) in PBS for 1 h at 37 °C. DCFH-DA fluorescence was recorded on a microplate fluorimeter reader (Tecan) with an excitation beam of 485 nm, while the emitted fluorescence was collected at 535 nm. All tests were presented as the means of two independent measurements carried out in triplicate. One-way ANOVA with Tukey’s post hoc test was used for statistical analysis: *—p < 0.05; **—p < 0.01; ***—p < 0.001.
Figure 2 Antioxidative activity of selected systems. HCT 116 cells were treated with a combination of H2O2 (4 mM) and N-acetyl-L-cysteine (NAC, 10 mM) or the tested compounds (10 mM). Treatment with H2O2 (4 mM) alone was used as a control for ROS induction. The level of reactive oxygen species (ROS) was measured with the fluorescent dye DCFH-DA using a fluorimeter. The data presented here are the results of three independent measurements carried out in triplicate. A one-way ANOVA with Tukey’s post hoc test was used for statistical analysis, *** p < 0.001; ns—not significant.

[6] = DPPH free radical scavenging assay; conditions: compared to the standard BHT
Excerpt: as §7
The well-known antioxidant butylated hydroxytoluene (BHT) was used as a standard for comparing activity during testing. The DPPH assay is a standard commonly used test for the in vitro assessment of the antioxidant capacity of novel compounds by using their ability to scavenge the stable radical 1,1-diphenyl-picrylhydrazyl. […] Another test used to evaluate the antioxidative capacity of novel compounds was the ABTS test, by which their activity was evaluated by scavenging the stable radical 3-ethylbenzthiazoline-6-sulphonic acid.
Determination of the reducing activity of the stable radical 1,1-diphenyl-picrylhydrazyl (DPPH):
The reducing activity of the investigated systems was measured by the DPPH method according to previously described procedures with modifications to ensure their use on a 96-well microplate. Briefly, equal volumes of various concentrations of the tested molecules (dissolved in DMSO) were added to a solution of DPPH (final concentration of 50 µM in absolute ethanol). Ethanol and DMSO were used as control solutions in line with earlier reports. The radical scavenging activity was calculated using the following formula:[(A517 control − A517 compound)/A517 control] × 100.
The IC50 values were calculated from dose–response curves using nonlinear regression analysis with the GraphPad Prism 8 Ink. program. All measurements were carried out in triplicate.

Structure (SMILES)	MIC E. coli ATCC 25922 (E. coli ATCC 25922)	IC50 [1]	IC50 [2]	IC50 (H460 (lung carcinoma))	IC50 [3]	MIC E. coli efflux del. (E. coli efflux del.)	Selectivity of antibacterial activity, in words (E. faecalis ATCC 29212; against the Gram-positive strain E. faecalis)	MIC E. faecalis ATCC 29212 (E. faecalis ATCC 29212)	MIC P. aeruginosa ATCC 27853 (P. aeruginosa ATCC 27853)	MIC A. baumannii ATCC 17978 (A. baumannii ATCC 17978)	IC50 ([4]; Homo sapiens)	MIC S. aureus ATCC 29213 (S. aureus ATCC 29213)	FRAP [5]	Level of ROS in cells under induced oxidative stress (HCT 116 cells)	DPPH free radical scavenging activity, in words [6]	MIC (S. aureus ATCC 29213; Staphylococcus aureus, ATCC29213, read-out: MIC S. aureus)	melting point	FRAP ferric reducing/antioxidant power, in words [5]	IC50 [4]
Cn1c(NC(=O)c2ccccc2O)nc2cc(C#N)ccc21 [Compound 11, N-(5-cyano-1-methyl-1H-benzo[d]imidazol-2-yl)-2-hydroxybenzamide]	> 64 µM	3.7 ± 0.04 µM	1.2 ± 0.3 µM	> 100 µM	5.3 ± 0.6 µM	> 64 µM	selective antibacterial activity	32 µM (≈ 9.35 µg/mL)	> 64 µM	> 64 µM	1.2 to 5.3 µM	> 64 µM	422.55 ± 8.82						
Cn1c(NC(=O)c2cc(O)c(O)c(O)c2)nc2cc(C#N)ccc21 [Compound 36, N-(5-cyano-1-methyl-1H-benzo[d]imidazol-2-yl)-3,4,5-trihydroxybenzamide]	> 64 µM	19.3 ± 6.4 µM	4.8 ± 0.7 µM	48.3 ± 10.5 µM	25.3 ± 0.7 µM	> 64 µM		64 µM (≈ 20.8 µg/mL)	> 64 µM	> 64 µM		32 µM (≈ 10.4 µg/mL)	2396.01 ± 35.27	reducing the level of ROS in the cells	significantly improved	32 µM (≈ 10.4 µg/mL)	245 to 251 °C	excellent in vitro antioxidant activity	
Cn1c(NC(=O)c2cc(O)c(O)c(O)c2)nc2ccccc21 [Compound 9, 3,4,5-trihydroxy-N-(1-methyl-1H-benzo[d]imidazol-2-yl)benzamide]	> 64 µM	> 100 µM	35.5 ± 5.2 µM	> 100 µM	32.3 ± 6.5 µM	> 64 µM		64 µM (≈ 19.2 µg/mL)	> 64 µM	> 64 µM		64 µM (≈ 19.2 µg/mL)	4036.77 ± 8.82	reducing the level of ROS in the cells	significantly improved			excellent in vitro antioxidant activity	
COc1ccc(C(=O)Nc2nc3cc(C#N)ccc3n2CC(C)C)c(O)c1 [Compound 10, N-(5-cyano-1-isobutyl-1H-benzo[d]imidazol-2-yl)-2-hydroxy-4-methoxybenzamide]	> 64 µM	3.9 ± 0.4 µM	2.2 ± 0.9 µM	4.4 ± 0.4 µM	4.4 ± 0.3 µM	> 64 µM		> 64 µM	> 64 µM	> 64 µM	2.2 to 4.4 µM	> 64 µM	123.61 ± 2.52	did not effectively scavenge ROS					1.2 to 5.3 µM
O=C(Nc1nc2ccccc2[nH]1)c1cc(O)c(O)c(O)c1 [Compound 32, N-(1H-benzo[d]imidazol-2-yl)-3,4,5-trihydroxybenzamide]	> 64 µM	> 100 µM	39.8 ± 1.4 µM	> 100 µM	66 ± 1.7 µM	> 64 µM		> 64 µM	> 64 µM	> 64 µM		> 64 µM	3245.79 ± 16.38	reducing the level of ROS in the cells	significantly improved		230 to 234 °C	excellent in vitro antioxidant activity	
